± gives the expanded uncertainty stated by the source.
Assay: activity coefficient (dimensionless); of the first substance listed, at infinite dilution; xn = mol fraction of the nth substance listed
Details: Liquid, Chromatography, x1 = 0

| SMILES | activity coefficient (303.15 K) | activity coefficient (313.15 K) | activity coefficient (323.15 K) | activity coefficient (333.15 K) | activity coefficient (343.15 K) | activity coefficient (353.15 K) | activity coefficient (363.15 K) |
| --- | --- | --- | --- | --- | --- | --- | --- |
| C1COCCO1 [1,4-dioxane] + CCCCn1cc[n+](C)c1.F[B-](F)(F)F | 1.53 ± 0.13 | 1.54 ± 0.13 | 1.55 ± 0.13 | 1.56 ± 0.13 | 1.57 ± 0.13 |  |  |
| CC(C)CO [2-methyl-1-propanol] + CCCCn1cc[n+](C)c1.F[B-](F)(F)F | 2.63 ± 0.23 | 2.22 ± 0.19 | 1.86 ± 0.16 | 1.66 ± 0.14 | 1.53 ± 0.13 |  |  |
| CC(C)CCO [3-methylbutan-1-ol] + CCCCn1cc[n+](C)c1.F[B-](F)(F)F | 6.63 ± 0.57 | 5.74 ± 0.49 | 5.08 ± 0.44 | 4.53 ± 0.39 | 4.08 ± 0.35 |  |  |
| CC(C)=O [acetone] + CCCCn1cc[n+](C)c1.F[B-](F)(F)F | 1.16 ± 0.096 | 1.19 ± 0.098 | 1.21 ± 0.1 | 1.23 ± 0.1 | 1.25 ± 0.1 |  |  |
| CC#N [acetonitrile] + CCCCn1cc[n+](C)c1.F[B-](F)(F)F | 0.734 ± 0.062 | 0.742 ± 0.063 | 0.752 ± 0.063 | 0.757 ± 0.064 | 0.768 ± 0.065 |  |  |
| CCCCO [butan-1-ol] + CCCCn1cc[n+](C)c1.F[B-](F)(F)F | 4.14 ± 0.36 | 3.67 ± 0.32 | 3.3 ± 0.28 | 2.98 ± 0.26 | 2.72 ± 0.23 |  |  |
| ClC(Cl)(Cl)Cl [tetrachloromethane] + CCCCn1cc[n+](C)c1.F[B-](F)(F)F | 5.73 ± 0.49 | 6.09 ± 0.53 | 6.27 ± 0.54 | 6.42 ± 0.55 | 6.52 ± 0.56 |  |  |

Next, values leading:

| activity coefficient (303.15 K) | activity coefficient (313.15 K) | activity coefficient (323.15 K) | activity coefficient (333.15 K) | activity coefficient (343.15 K) | activity coefficient (353.15 K) | activity coefficient (363.15 K) | SMILES |
| --- | --- | --- | --- | --- | --- | --- | --- |
| 3.85 ± 0.33 | 3.44 ± 0.3 | 3.12 ± 0.27 | 2.79 ± 0.24 | 2.56 ± 0.22 |  |  | CCC(C)O (stereo not given) [butan-2-ol] + CCCCn1cc[n+](C)c1.F[B-](F)(F)F |
|  |  | 2.64 ± 0.23 | 2.62 ± 0.23 | 2.61 ± 0.23 | 2.58 ± 0.22 | 2.57 ± 0.22 | O=C1CCCCC1 [cyclohexanone] + CCCCn1cc[n+](C)c1.F[B-](F)(F)F |
| 1.1 ± 0.091 | 1.15 ± 0.095 | 1.2 ± 0.099 | 1.24 ± 0.1 | 1.28 ± 0.11 |  |  | ClCCl [dichloromethane] + CCCCn1cc[n+](C)c1.F[B-](F)(F)F |
| 1.59 ± 0.14 | 1.39 ± 0.12 | 1.27 ± 0.11 | 1.17 ± 0.097 | 1.07 ± 0.088 |  |  | CCO [ethanol] + CCCCn1cc[n+](C)c1.F[B-](F)(F)F |
| 3.3 ± 0.28 | 3.34 ± 0.29 | 3.36 ± 0.29 | 3.39 ± 0.29 | 3.41 ± 0.29 |  |  | CCOC(C)=O [ethyl acetate] + CCCCn1cc[n+](C)c1.F[B-](F)(F)F |
| 0.813 ± 0.068 | 0.716 ± 0.061 | 0.646 ± 0.056 | 0.596 ± 0.053 | 0.529 ± 0.048 |  |  | CO [methanol] + CCCCn1cc[n+](C)c1.F[B-](F)(F)F |
| 6.96 ± 0.6 | 5.91 ± 0.51 | 5.15 ± 0.45 | 4.56 ± 0.39 | 4 ± 0.34 |  |  | CCCCCO [pentan-1-ol] + CCCCn1cc[n+](C)c1.F[B-](F)(F)F |
| 2.8 ± 0.24 | 2.48 ± 0.21 | 2.23 ± 0.19 | 1.96 ± 0.17 | 1.64 ± 0.14 |  |  | CCCO [propan-1-ol] + CCCCn1cc[n+](C)c1.F[B-](F)(F)F |
| 2.63 ± 0.23 | 2.22 ± 0.19 | 1.86 ± 0.16 | 1.66 ± 0.14 | 1.53 ± 0.13 |  |  | CC(C)O [propan-2-ol] + CCCCn1cc[n+](C)c1.F[B-](F)(F)F |
| 1.11 ± 0.092 | 1.21 ± 0.1 | 1.28 ± 0.11 | 1.36 ± 0.11 | 1.43 ± 0.12 |  |  | ClC(Cl)Cl [trichloromethane] + CCCCn1cc[n+](C)c1.F[B-](F)(F)F |
